Source: BigSolDB 2.1

O=C(O)c1ccc(C(=O)O)o1
Settings	solubility (mole fraction)
in acetic acid, 303.55 K	0.000242
in acetic acid, 313.25 K	0.000319
in acetic acid, 322.95 K	0.000471
in acetic acid, 332.75 K	0.000656
in acetic acid, 342.45 K	0.000874
in acetic acid, 352.25 K	0.00111
in ethanol, 299.35 K	0.00298
in ethanol, 305.35 K	0.00337
in ethanol, 311.25 K	0.004
in ethanol, 319.25 K	0.00478
in ethanol, 323.15 K	0.00526
in ethanol, 328.95 K	0.0062
in ethanol, 334.75 K	0.0072
in ethanol, 340.55 K	0.00814
in ethanol, 346.35 K	0.0093
in methanol, 297.35 K	0.00371
in methanol, 303.35 K	0.00408
in methanol, 309.35 K	0.00484
in methanol, 315.25 K	0.00563
in methanol, 321.15 K	0.00661
in methanol, 326.85 K	0.00758
in methanol, 332.65 K	0.00884
in water, 303.55 K	0.000141
in water, 313.25 K	0.000195
in water, 322.95 K	0.000302
in water, 332.75 K	0.00047
in water, 342.45 K	0.000672
in water, 352.25 K	0.000873
